These results are taken from patent US20120295838A1, “Selective poly-substituted glycine antibiotics and related compositions” (priority 2008, published 2012).

For one data set, the system named is human erythrocytes. As to the kind of experiment: Hemolysis assay. In kind it is cell-based. On the procedure:
(§1) Hemolysis assays. Erythrocytes were isolated from freshly drawn, heparanized human blood and resuspended to 20 vol % in PBS (pH 7.4). In a 96-well microtiter plate, 100 μL erythrocyte suspension was added to 100 uL peptoid solution in PBS (prepared by 1:2 serial dilutions), or 100 μL PBS in the case of negative controls. 100% hemolysis wells contained 100 μL, blood cell suspension with 100 μL 0.2 vol % Triton X-100. The plate was incubated for 1 h at 37° C., then each well was diluted with 1504 PBS. The plate was then centrifuged at 1200 g for 15 min, 100 μL of the supernatant from each well transferred to a fresh microtiter plate, and A350 measured.
Hemolysis assays. Erythrocytes were isolated from freshly drawn, heparanized human blood and resuspended in PBS (pH 7.4) to make a 20% volume suspension. Peptoid solutions were prepared by serial dilution (2:1) in a 96-well microtiter plate. For test wells, 100 μLL of erythrocyte suspension was added to 100 μL of peptoid solution in PBS; PBS without peptoid was used as the negative control and 0.2 vol % Triton X-100 as the positive control that indicates 100% hemolysis. After 1 hour incubation at 37° C., each well was diluted with 150 μL PBS. Plates were then centrifuged at 1,200×g for 15 minutes to pellet the cells. 30 μL of the supernatant from each well were transferred to the corresponding well of a second 96-well plate that contains 70 μL PBS.
as §1, with “assays for Compositions.” for “assays.”, “100” for “100 uL”, “μL” for “μL,”, “150 μL” for “1504”, “1200g” for “1200 g”

The next data set is described as follows: MTS assay, NIH 3T3 cells. In kind it is cell-based, mouse. The settings on record: NIH 3T3 fibroblast cells. How it is done:
The potencies of all compounds were determined against representative Gram-negative (E. coli ATCC 35218) and Gram-positive (B. subtilis ATCC 6633) biosafety level 1 (BSL1) organisms. In addition to hemolytic activity, the conventional measure of toxicity to mammalian cells, the effect of each ampetoid on NIH 3T3 mouse fibroblast cells was determined using the MTS tetrazolium salt-based colorimetric assay. While hemolysis measures the degree to which erythrocytes are lysed, the MTS assay indirectly quantifies the extent to which cellular metabolic activity is inhibited.
MTS assays. NIH/3T3 cells (ATCC Corporation) cultured at 37° C. and 5% CO2 in complete Dulbecco's modified eagle's media (CDMEM) supplemented with 1% sodium pyruvate, 1% penicillin-streptomycin, 1.5 g/L NaHCO3, and 10% fetal bovine serum. Cells were seeded at a density of 5,000 cells per well for NIH/3T3 cells in 96-well plates (100 μl total volume). A peptoid solution plate (100 μL total volume per well) was prepared by serial dilution of aqueous peptoid stock solution in Hank's balanced salt solution (HBSS) media. The day-old cell monolayers were washed with HBSS and media was replaced with 100 μL HBSS. The contents of the peptoid solution plate were transferred onto corresponding wells of the cell monolayer plate, and 40 μL MTS reagent (Promega, Inc.) was added to each well. After incubating for 3 hours at 37° C., absorbance at 490 nm was determined. […] The average of six replicates is reported.
On the technique in general: Tetrazolium dyes change colour on reduction, which living cells bring about.

[1] abbreviates: Table 6, 50% inhibitory dose against NIH 3T3 mouse fibroblast cells, read-out: ID50.

Molecules are shown by their SMILES. Like-named read-outs stand apart in the source and are kept apart here. Square brackets hold non-standard residues; d marks the D form. Peptide text beside a SMILES is read from it. N(1S-Me-propyl)Gly = CC[C@H](C)NCC(=O)O; Nrpe = C[C@@H](NCC(=O)O)c1ccccc1; Nspe = C[C@H](NCC(=O)O)c1ccccc1; Nlys = NCCCCNCC(=O)O

Take `C[C@@H](c1ccccc1)N(CC(N)=O)C(=O)CN(C(=O)CN(CCC(=O)O)C(=O)CN(C(=O)CN(C(=O)CN(CCC(=O)O)C(=O)CN(C(=O)CN(C(=O)CN(CCC(=O)O)C(=O)CN(C(=O)CN(C(=O)CNCCC(=O)O)[C@@H](C)c1ccccc1)[C@@H](C)c1ccccc1)[C@@H](C)c1ccccc1)[C@@H](C)c1ccccc1)[C@@H](C)c1ccccc1)[C@@H](C)c1ccccc1)[C@@H](C)c1ccccc1` [1-Nglu1.4.7.10, H-(Nglu-Nspe-Nspe)4-NH2]: the “HD10 (10% hemolytic dose)” value with human erythrocytes (red cells of human, 1 h) was >110/>110 μM.
In the case of `C[C@H](c1ccccc1)N(CC(=O)N(CCCCN)CC(=O)N(CC(=O)N(CC(=O)N(CCCCN)CC(=O)N(CC(=O)N(CC(=O)N(CCCCN)CC(=O)N(CC(=O)N(CC(N)=O)[C@@H](C)c1ccccc1)[C@@H](C)c1ccccc1)[C@@H](C)c1ccccc1)[C@@H](C)c1ccccc1)[C@H](C)c1ccccc1)[C@H](C)c1ccccc1)C(=O)CN(C(=O)CNCCCCN)[C@H](C)c1ccccc1` [1-Nrpe2,3,5,6, H-(Nlys-Nrpe-Nrpe)2-(Nlys-Nspe-Nspe)2-NH2] (H-[Nlys][Nrpe][Nrpe][Nlys][Nrpe][Nrpe][Nlys][Nspe][Nspe][Nlys][Nspe][Nspe]-NH2), the CC50 at 3 h in the data set “MTS assay, NIH 3T3 cells” (setting [1]) amounted to 4.8 µM.
Consider `C[C@H](c1ccccc1)N(CC(=O)N(CC(N)=O)[C@@H](C)c1ccccc1)C(=O)CN(CCCCN)C(=O)CN(C(=O)CN(C(=O)CN(CCCCN)C(=O)CN(C(=O)CN(C(=O)CN(CCCCN)C(=O)CN(C(=O)CN(C(=O)CNCCCCN)[C@H](C)c1ccccc1)[C@@H](C)c1ccccc1)[C@H](C)c1ccccc1)[C@@H](C)c1ccccc1)[C@H](C)c1ccccc1)[C@@H](C)c1ccccc1` [1-Nrpe2,5,8,11, H-(Nlys-Nrpe-Nspe)4-NH2] (H-[Nlys][Nrpe][Nspe][Nlys][Nrpe][Nspe][Nlys][Nrpe][Nspe][Nlys][Nrpe][Nspe]-NH2), for which the CC50 at 3 h in “MTS assay, NIH 3T3 cells” (setting [1]) turned out to be 5.2 µM.
As to `C[C@H](c1ccccc1)N(CC(N)=O)C(=O)CN(C(=O)CN(CCCCN)C(=O)CN(C(=O)CN(C(=O)CN(CCCCN)C(=O)CN(C(=O)CN(C(=O)CN(CCCCN)C(=O)CN(C(=O)CN(C(=O)CNCCCCN)[C@@H](C)c1ccccc1)[C@H](C)c1ccccc1)[C@@H](C)c1ccccc1)[C@H](C)c1ccccc1)[C@@H](C)c1ccccc1)[C@H](C)c1ccccc1)[C@@H](C)c1ccccc1` [1-Nrpe3,6,9,12, H-(Nlys-Nspe-Nrpe)4-NH2], in “MTS assay, NIH 3T3 cells” (setting [1]), the CC50 at 3 h was 3.8 µM.
In the data set “MTS assay, NIH 3T3 cells” (mouse), `C[C@H](NCC(=O)N(CCCCN)CC(=O)N(CC(=O)N(CCCCN)CC(=O)N(CCCCN)CC(=O)N(CCCCN)CC(=O)N(CC(=O)N(CCCCN)CC(=O)N(CC(=O)N(CCCCN)CC(=O)N(CCCCN)CC(=O)N(CC(N)=O)[C@@H](C)c1ccccc1)[C@@H](C)c1ccccc1)[C@@H](C)c1ccccc1)[C@@H](C)c1ccccc1)c1ccccc1` [1B12 mer-Nlys4,6,10, H-Nspe-Nlys-Nspe-Nlys-Nlys-Nlys-Nspe-Nlys-Nspe-Nlys-Nlys-Nspe-NH2] (H-[Nspe][Nlys][Nspe][Nlys][Nlys][Nlys][Nspe][Nlys][Nspe][Nlys][Nlys][Nspe]-NH2) gave a CC50 at 3 h greater than 100 µM.
For the compound `CC[C@H](C)N(CC(=O)N(CC(=O)N(CC(=O)N(CCCCN)CC(N)=O)[C@@H](C)c1ccccc1)[C@@H](C)CC)C(=O)CN(CCCCN)C(=O)CN(C(=O)CN(CCCCN)C(=O)CN(C(=O)CN(C(=O)CN(C(=O)CN(C(=O)CNCCCCN)[C@@H](C)CC)[C@@H](C)c1ccccc1)[C@@H](C)CC)[C@@H](C)c1ccccc1)[C@@H](C)c1ccccc1` [2scrambled, H-Nlys-Nssb-Nspe-Nssb-Nspe-Nlys-Nspe-Nlys-Nssb-Nssb-Nspe-Nlys-NH2] (H-[Nlys][N(1S-Me-propyl)Gly][Nspe][N(1S-Me-propyl)Gly][Nspe][Nlys][Nspe][Nlys][N(1S-Me-propyl)Gly][N(1S-Me-propyl)Gly][Nspe][Nlys]-NH2), in the data set on human erythrocytes, the “HD10 (10% hemolytic dose)” value was greater than 120 µM.
For `C[C@@H](c1ccccc1)N(CC(N)=O)C(=O)CN(C(=O)CN(CCCCN)C(=O)CN(C(=O)CN(C(=O)CNCCCCN)[C@@H](C)c1ccccc1)[C@@H](C)c1ccccc1)[C@@H](C)c1ccccc1` [16 mer, H-(Nlys-Nspe-Nspe)2-NH2] (H-[Nlys][Nspe][Nspe][Nlys][Nspe][Nspe]-NH2), in the data set on human erythrocytes, the HD10 is given as >200/>200 μM and the HD50 is >200/>200 μM.
